In patent US4346102A, “3H-Dihydrofuranone-2 derivatives and pharmaceutical use thereof” (Delalande S.A., priority 1979, dated 1982):
Read-outs that look alike come from different tables or passages of the source.

What was measured:
[1] = system: generalized trembling caused by dl-5-hydroxytryptophane; experiment: Test B: potentialization in mice of generalized trembling caused by dl-5-hydroxytryptophane; format: in vivo; conditions: Mus musculus, read-out: Test B ED 50
Description: Test B: Potentialization in mice of generalized trembling caused by an intraperitoneal injection of dl-5-hydroxytryptophane, according to the protocol described by GOURET C. and RAYNAUD G. in J. Pharmacol. (Paris), (1974), 5, 231.

[2] = Acute toxicity, LD 50 in mice, oral; conditions: mouse, in vivo
ptosis (reserpine) = experiment: Test A: antagonism with respect to ptosis observed one hour after intravenous injection of reserpine in mice; format: in vivo; conditions: Mus musculus, 1 h, read-out: Test A ED 50
Description: Test A: Antagonism with respect to ptosis observed one hour after an intravenous injection (2 mg/kg) of reserpine given to mice according to the protocol described by GOURET C. and THOMAS J. in J. Pharmacol. (Paris, (1973), 4, 401.

[3] = mice, oral, dl-5-hydroxytryptophane i.p.
[4] = mice, oral, ptosis one hour after reserpine 2 mg/kg i.v.

**Q.** Which ED50 [1, 3] does the source give for `COC[C@H]1C[C@@H](c2ccc(OCCCCCl)cc2)C(=O)O1` (relative stereo) [3 B] here?
**A.** Its ED50 is 1.7 mg/kg.

**Q.** And the LD50 [2]?
**A.** Its LD50 is 2000 mg/kg.

**Q.** And the ED50 (ptosis (reserpine); [4])?
**A.** Its ED50 is 3.6 mg/kg.

**Q.** For `COC[C@H]1C[C@@H](c2ccc(OCc3ccccc3)cc2)C(=O)O1` (relative stereo) [5 B], which ED50 [1, 3] is on record?
**A.** The ED50 was 15.5 mg/kg.

**Q.** What about the ED50 (ptosis (reserpine); [4]) of the same compound?
**A.** The ED50 was 11.5 mg/kg.

**Q.** Which ED50 [1, 3] does the source give for `O=C1O[C@@H](CO)C[C@@H]1c1ccc(OCc2cccc([N+](=O)[O-])c2)cc1` (relative stereo) [6 A] here?
**A.** Its ED50 is 5.8 mg/kg.

**Q.** And the LD50 [2]?
**A.** The LD50 was > 2000 mg/kg.

**Q.** What about the ED50 (ptosis (reserpine); [4]) of the same compound?
**A.** Its ED50 is 4.4 mg/kg.

**Q.** What does the source list for `O=C1O[C@@H](CO)C[C@H]1c1ccc(OCc2cccc([N+](=O)[O-])c2)cc1` (relative stereo) [6 B]?
**A.** ED50 [1, 3]: 2 mg/kg; LD50 [2]: > 2000 mg/kg; ED50 (ptosis (reserpine); [4]): 1.6 mg/kg

**Q.** What does the source list for `CC(=O)OC[C@H]1C[C@H](c2ccc(OCc3cccc([N+](=O)[O-])c3)cc2)C(=O)O1` (relative stereo) [7 A]?
**A.** ED50 [1, 3]: 10 mg/kg; ED50 (ptosis (reserpine); [4]): 12.5 mg/kg

**Q.** With `CC(=O)OC[C@H]1C[C@@H](c2ccc(OCc3cccc([N+](=O)[O-])c3)cc2)C(=O)O1` (relative stereo) [7 B] as the compound, how does the ED50 [1, 3] read?
**A.** The ED50 was 3.2 mg/kg.

**Q.** What about the LD50 [2] of the same compound?
**A.** Its LD50 is > 2000 mg/kg.

**Q.** What about the ED50 (ptosis (reserpine); [4]) of the same compound?
**A.** The ED50 was 2.5 mg/kg.

**Q.** For `COC[C@H]1C[C@H](c2ccc(OCc3cccc([N+](=O)[O-])c3)cc2)C(=O)O1` (relative stereo) [8 A], which ED50 [1, 3] is on record?
**A.** The ED50 was 4.4 mg/kg.

**Q.** And the LD50 [2]?
**A.** Its LD50 is > 2000 mg/kg.

**Q.** And the ED50 (ptosis (reserpine); [4])?
**A.** The ED50 was 6.2 mg/kg.

**Q.** Which ED50 [1, 3] does the source give for `COC[C@H]1C[C@@H](c2ccc(OCc3cccc([N+](=O)[O-])c3)cc2)C(=O)O1` (relative stereo) [8 B] here?
**A.** Its ED50 is 0.29 mg/kg.

**Q.** What about the LD50 [2] of the same compound?
**A.** The LD50 was 2000 mg/kg.

**Q.** What about the ED50 (ptosis (reserpine); [4]) of the same compound?
**A.** The ED50 was 0.58 mg/kg.

**Q.** Which results are given for `COC[C@H]1C[C@H](c2ccc(OCc3cccc(Cl)c3)cc2)C(=O)O1` (relative stereo) [10 A]?
**A.** ED50 [1, 3]: 10 mg/kg; LD50 [2]: > 2000 mg/kg; ED50 (ptosis (reserpine); [4]): 24 mg/kg

**Q.** Which ED50 [1, 3] does the source give for `COC[C@H]1C[C@@H](c2ccc(OCc3cccc(Cl)c3)cc2)C(=O)O1` (relative stereo) [10 B] here?
**A.** The ED50 was 10 mg/kg.

**Q.** And the LD50 [2]?
**A.** The LD50 was > 2000 mg/kg.

**Q.** What about the ED50 (ptosis (reserpine); [4]) of the same compound?
**A.** The ED50 was 15 mg/kg.

**Q.** Which ED50 [1, 3] does the source give for `COC[C@@H]1C[C@@H](c2ccc(OCc3cccc(C#N)c3)cc2)C(=O)O1` (relative stereo) [13 A] here?
**A.** The ED50 was 20 mg/kg.

**Q.** What about the LD50 [2] of the same compound?
**A.** The LD50 was > 2000 mg/kg.

**Q.** And the ED50 (ptosis (reserpine); [4])?
**A.** The ED50 was 12 mg/kg.

**Q.** For `COC[C@@H]1C[C@H](c2ccc(OCc3cccc(C#N)c3)cc2)C(=O)O1` (relative stereo) [13 B], which ED50 [1, 3] is on record?
**A.** The ED50 was 1.7 mg/kg.

**Q.** What about the LD50 [2] of the same compound?
**A.** Its LD50 is > 2000 mg/kg.

**Q.** What about the ED50 (ptosis (reserpine); [4]) of the same compound?
**A.** The ED50 was 0.9 mg/kg.

**Q.** Which ED50 [1, 3] does the source give for `COC[C@H]1C[C@H](c2ccc(OCc3cc(C#N)cc([N+](=O)[O-])c3)cc2)C(=O)O1` (relative stereo) [17 A] here?
**A.** The ED50 was 6.4 mg/kg.

**Q.** What about the LD50 [2] of the same compound?
**A.** Its LD50 is > 2000 mg/kg.

**Q.** What about the ED50 (ptosis (reserpine); [4]) of the same compound?
**A.** The ED50 was 5.5 mg/kg.

**Q.** Which results are given for `COC[C@H]1C[C@@H](c2ccc(OCc3cc(C#N)cc([N+](=O)[O-])c3)cc2)C(=O)O1` (relative stereo) [17 B]?
**A.** ED50 [1, 3]: 0.55 mg/kg; LD50 [2]: 1700 mg/kg; ED50 (ptosis (reserpine); [4]): 0.32 mg/kg

**Q.** What does the source list for `COC[C@H]1C[C@H](c2ccc(OCc3ccc(F)c(Cl)c3)cc2)C(=O)O1` (relative stereo) [18 A]?
**A.** ED50 [1, 3]: 16 mg/kg; ED50 (ptosis (reserpine); [4]): 23 mg/kg

**Q.** For `COC[C@H]1C[C@@H](c2ccc(OCc3ccc(F)c(Cl)c3)cc2)C(=O)O1` (relative stereo) [18 B], which ED50 [1, 3] is on record?
**A.** The ED50 was 3.1 mg/kg.

**Q.** And the LD50 [2]?
**A.** The LD50 was > 2000 mg/kg.

**Q.** And the ED50 (ptosis (reserpine); [4])?
**A.** Its ED50 is 5.4 mg/kg.

**Q.** What does the source list for `N[C@@H]1C[C@H]1c1ccccc1` (relative stereo) [TRANYLCYPROMINE, reference compound]?
**A.** ED50 ([1]; po): 1.37 mg/kg; LD50 [2]: 58 mg/kg; ED50 (ptosis (reserpine); po): 1.55 mg/kg

**Q.** What does the source list for `CC(C)CCOc1ccc(C2CC(CO)OC2=O)cc1` (stereo not drawn) [Compound 1]?
**A.** ED50 [1, 3]: 14 mg/kg; ED50 (ptosis (reserpine); [4]): 19 mg/kg

**Q.** What does the source list for `O=C1OC(CO)CC1c1ccc(OCC2CCCCC2)cc1` (stereo not drawn) [Compound 2]?
**A.** ED50 [1, 3]: 9 mg/kg; LD50 [2]: > 2000 mg/kg; ED50 (ptosis (reserpine); [4]): 5.5 mg/kg

**Q.** With `COCC1CC(c2ccc(OCCCCC#N)cc2)C(=O)O1` (stereo not drawn) [Compound 4] as the compound, how does the ED50 [1, 3] read?
**A.** Its ED50 is 0.19 mg/kg.

**Q.** What about the LD50 [2] of the same compound?
**A.** Its LD50 is > 2000 mg/kg.

**Q.** What about the ED50 (ptosis (reserpine); [4]) of the same compound?
**A.** The ED50 was 0.3 mg/kg.

**Q.** Which ED50 [1, 3] does the source give for `O=C1OC(CO)CC1c1ccc(OCc2cccc([N+](=O)[O-])c2)cc1` (stereo not drawn) [Compound 6, 3-para(metanitrobenzyloxy)phenyl-5-hydroxymethyl-3H-dihydrofuranone-2] here?
**A.** The ED50 was 1.5 mg/kg.

**Q.** What about the ED50 (ptosis (reserpine); [4]) of the same compound?
**A.** The ED50 was 1.4 mg/kg.

**Q.** What does the source list for `COCC1C=C(c2ccc(OCc3cccc([N+](=O)[O-])c3)cc2)C(=O)O1` (stereo not drawn) [Compound 9]?
**A.** LD50 [2]: > 2000 mg/kg; ED50 (ptosis (reserpine); [4]): 0.22 mg/kg

**Q.** With `COCC1C=C(c2ccc(OCc3cccc(Cl)c3)cc2)C(=O)O1` (stereo not drawn) [Compound 11] as the compound, how does the ED50 [1, 3] read?
**A.** Its ED50 is 1.6 mg/kg.

**Q.** What about the LD50 [2] of the same compound?
**A.** The LD50 was > 2000 mg/kg.

**Q.** And the ED50 (ptosis (reserpine); [4])?
**A.** The ED50 was 2.3 mg/kg.

**Q.** With `N#Cc1cccc(COc2ccc(C3CC(CO)OC3=O)cc2)c1` (stereo not drawn) [Compound 12] as the compound, how does the ED50 [1, 3] read?
**A.** The ED50 was 16 mg/kg.

**Q.** And the ED50 (ptosis (reserpine); [4])?
**A.** Its ED50 is 10 mg/kg.

**Q.** What does the source list for `COCC1C=C(c2ccc(OCc3cccc(C#N)c3)cc2)C(=O)O1` (stereo not drawn) [Compound 14, 3-para(metacyanobenzyloxy)-phenyl-5-methoxymethyl-5H-furanone-2]?
**A.** ED50 [1, 3]: 0.55 mg/kg; ED50 (ptosis (reserpine); [4]): 0.68 mg/kg

**Q.** Which ED50 [1, 3] does the source give for `COCC1CC(c2ccc(OCc3cccnc3)cc2)C(=O)O1` (stereo not drawn) [Compound 15] here?
**A.** Its ED50 is 12 mg/kg.

**Q.** And the ED50 (ptosis (reserpine); [4])?
**A.** The ED50 was 5.8 mg/kg.

**Q.** For `N#Cc1cc(COc2ccc(C3CC(CO)OC3=O)cc2)cc([N+](=O)[O-])c1` (stereo not drawn) [Compound 16], which ED50 [1, 3] is on record?
**A.** Its ED50 is 3.5 mg/kg.

**Q.** What about the LD50 [2] of the same compound?
**A.** Its LD50 is > 2000 mg/kg.

**Q.** What about the ED50 (ptosis (reserpine); [4]) of the same compound?
**A.** The ED50 was 1.2 mg/kg.

**Q.** Which ED50 [1, 3] does the source give for `COCC1C=C(c2ccc(OCc3ccc(F)c(Cl)c3)cc2)C(=O)O1` (stereo not drawn) [Compound 19] here?
**A.** The ED50 was 2.4 mg/kg.

**Q.** What about the LD50 [2] of the same compound?
**A.** Its LD50 is > 2000 mg/kg.

**Q.** What about the ED50 (ptosis (reserpine); [4]) of the same compound?
**A.** Its ED50 is 2.1 mg/kg.

**Q.** With `COCC1C=C(c2ccc(OCc3ccccc3)cc2)C(=O)O1` (stereo not drawn) [Compound 20] as the compound, how does the ED50 [1, 3] read?
**A.** Its ED50 is 4 mg/kg.

**Q.** And the LD50 [2]?
**A.** The LD50 was > 2000 mg/kg.

**Q.** What about the ED50 (ptosis (reserpine); [4]) of the same compound?
**A.** The ED50 was 4.4 mg/kg.

**Q.** What does the source list for `O=C(CCNNC(=O)c1ccncc1)NCc1ccccc1` [NIALAMIDE, reference compound]?
**A.** ED50 ([1]; po): 5.2 mg/kg; LD50 [2]: 1100 mg/kg; ED50 (ptosis (reserpine); po): 4.5 mg/kg

**Q.** With `C#CCN(C)Cc1ccccc1` [PARGYLINE, reference compound] as the compound, how does the ED50 [1, 3] read?
**A.** The ED50 was 48 mg/kg.

**Q.** What about the LD50 [2] of the same compound?
**A.** The LD50 was 480 mg/kg.

**Q.** And the ED50 (ptosis (reserpine); [4])?
**A.** Its ED50 is 34 mg/kg.

**Q.** For `C#CCN(C)C(C)Cc1ccccc1` (stereo not drawn) [reference compound], which ED50 ([1]; po) is on record?
**A.** Its ED50 is 3 mg/kg.

**Q.** What about the LD50 [2] of the same compound?
**A.** Its LD50 is 520 mg/kg.

**Q.** What about the ED50 (ptosis (reserpine); po) of the same compound?
**A.** Its ED50 is 9 mg/kg.
